The values that follow come from patent publication US10577317B2, “Crystal forms and production methods thereof” (Sunovion Pharmaceuticals Inc., priority 2017, dated 2020).

Converted amounts (≈) assume the structure as drawn. “Also recorded” adds a separate entry of the source. Read-outs that look alike come from different tables or passages of the source.

Common to all, as to assay type: physicochemical
The nature of series [1]: Desolvation of ethyl acetate solvate crystal forms upon drying and heating. The settings on record: drying and heating above about 30° C. The method, then:
For example, Examples 4A and 4B teach methods of producing crystalline (R)-amisulpride ethyl acetate solvate of Form B. The product of these examples upon drying above about 30° C., desolvates and converts to crystals of crystalline (R)-amisulpride free base of Form A and amorphous. Similarly, for example, Example 7 teaches a method producing crystalline (S)-amisulpride ethyl acetate solvate of Form B′. The product of these examples upon drying above about 30° C., desolvates and converts to crystals of crystalline (S)-amisulpride free base of Form A′ and amorphous. Although the fraction of the solvate that converts to Form A or Form A′ in the above examples is low, it is sufficient for obtaining seed crystals.
In various preferred embodiments, crystals of enantiomeric amisulpride ethyl acetate solvate are isolated by cooling the reaction mixture to below about 10° C., and preferably to about −10° C., until a slurry is formed. The slurry is slowly warmed and agitated for at least 1 hour at a temperature less than about 10° C., then filtered and washed with ethyl acetate at room temperature, and the resultant residue allowed to dry to isolate the desired crystalline enantiomeric amisulpride ethyl acetate solvate having a powder x-ray crystal pattern comprising peaks, in terms of 2-theta, at least at 6.4±0.2°, 8.3±0.2°, and 20.8±0.2°.

A short description of series [2]: Solubility (mg/mL) in water, buffers, simulated fluids and organic solvents (Table 1).
Series [3] is described as follows: DVS water sorption isotherm, 25° C. scanned over 0 to 95% relative humidity (hygroscopicity). The settings on record: DVS, 25° C., 0 to 95% relative humidity. From the text:
In various embodiments, the hygroscopicity of crystal forms of racemic amisulpride, enantiomeric amisulpride, and enantiomeric amisulpride solvates are characterized by dynamic vapor sorption (DVS). DVS is a gravimetric technique that measures how much of a solvent is absorbed by a sample by varying the vapor concentration surrounding the sample (e.g., relative humidity) and measuring the change in mass. In the present application, DVS is used to generate water sorption isotherms, which represent the equilibrium amount of vapor sorbed as a function of steady state relative vapor pressure at a constant temperature.

With `CCN1CCC[C@@H]1CNC(=O)c1cc(S(=O)(=O)CC)c(N)cc1OC.CCOC(C)=O` [Form B, (R)-4-Amino-N-[(1-ethyl-2-pyrrolidinyl)methyl]-5-(ethylsulfonyl)-2-methoxybenzamide ethyl acetate solvate], the “desolvation of ethyl acetate solvate form” value in series [1] was “desolvate upon drying and heating about 30 °C to convert to Form A; also recorded: desolvate to Form A and amorphous”.
As to `CCN1CCC[C@H]1CNC(=O)c1cc(S(=O)(=O)CC)c(N)cc1OC.CCOC(C)=O` [Form B′, S-4-Amino-N-[(1-ethyl-2-pyrrolidinyl)methyl]-5-(ethylsulfonyl)-2-methoxybenzamide ethyl acetate solvate], in series [1], the “desolvation of ethyl acetate solvate form” value was “desolvate upon drying and heating about 30 °C; also recorded: desolvate to Form A′ and amorphous”.
Regarding `CCN1CCCC1CNC(=O)c1cc(S(=O)(=O)CC)c(N)cc1OC` (racemic) [crystalline racemic amisulpride, 4-amino-N-[(1-ethylpyrrolidin-2-yl)methyl]-5-ethylsulfonyl-2-methoxy-benzamide, reference compound], the solubility was 0.4 mg/mL (≈ 1080 µM) in series [2] (acetone/MtBE 1:4, organic solvent or mixture, read-out: Solubility (mg/mL): Acetone/MtBE 1:4); 0.2 mg/mL (≈ 541 µM) in series [2] (acetone/MtBE 1:9, organic solvent or mixture, read-out: Solubility (mg/mL): Acetone/MtBE 1:9); 0.5 mg/mL (≈ 1350 µM) in series [2] (ethyl acetate, organic solvent or mixture, read-out: Solubility (mg/mL): Ethyl Acetate); under 1 mg/mL in series [2] (water, solution pH 10.2 (Form A), 10.3 (Form A′), read-out: Solubility (mg/mL): Water).
For `CCN1CCC[C@H]1CNC(=O)c1cc(S(=O)(=O)CC)c(N)cc1OC.O=C(O)C(O)C(O)C(=O)O` [(S)-amisulpride D-tartrate, S-(−)-4-Amino-N-[(1-ethyl-2-pyrrolidinyl)methyl]-5-(ethylsulfonyl)-2-methoxybenzamide D-tartrate, reference compound], the hygroscopicity result in series [3] is recorded as “highly hygroscopic”. In series [3] (n=4), the “maximum mass change in water sorption isotherms (n=4, σ=18.25)” value was determined as 52±9%.
